Assays:
[1] = test system: glutathione peroxidase produced from Mucor hiemalis YR-0929; test: substrate specificity of glutathione peroxidase (NADPH/glutathione reductase coupled assay, 340 nm); assay type: biochemical; conditions: hydroperoxide as substrate of the enzyme; cumene hydroperoxide = 100
Protocol: The reaction is illustrated by the following formulae (1) and (2): [drawing 1] wherein GSSG represents oxidized glutathione, NADPH represents reduced nicotinamide adenine dinucleotide phosphate […] and NADP represents nicotinamide adenine dinucleotide phosphate.
(1) Substrate: 30 mM Cumene hydroperoxide aqueous solution: 0.2 ml
(2) Buffer: 100 mM Phosphate buffer (pH 7.0) containing 4 mM EDTA: 1.5 ml
(3) Reduced glutathione: 10 mM Aqueous solution: 0.3 ml
(4) Sodium azide: 10 mM Aqueous solution: 0.3 ml
(5) NADPH*: 1.6 mM Aqueous solution: 0.3 ml
(6) Glutathione reductase solution: Prepared by diluting with 100 mM phosphate buffer (pH 7.0) to 1 u/ml: 0.3 ml
(7) Enzyme solution: 0.1 ml
This enzyme acts upon cumene hydroperoxide, t-butyl hydroperoxide, linolenic acid hydroperoxide, etc.

[2] = test system: glutathione peroxidase produced from Mucor hiemalis YR-0929; test: inhibition of glutathione peroxidase enzymatic action; assay type: biochemical; conditions: 25° C., pH 7.0
Protocol: When reacted at 25° C. and pH 7.0, this enzymatic action is inhibited by the following substances.

[3] = inhibitor concentration 10^-3 M
[4] = inhibitor concentration 10^-4 M

Molecule	Relative Activity (%) [1] [%]	Percent Inhibition (%) [2, 3] [%]	Percent Inhibition (%) [2, 4] [%]
CC(C)(OO)c1ccccc1 [Cumene hydroperoxide]	100		
NC(=O)CI [Iodoacetamide]		16	1
CCN1C(=O)C=CC1=O [N--Ethylmaleimide]		93	3
O=C(O)c1cc[c]([Hg][Cl])cc1 [PCMB, Parachloromercurybenzoate]		99	75
CC(C)(C)OO [t-Butyl hydroperoxide]	175		
Linolenic acid hydroperoxide	98		

Source: patent publication US4657856A (priority 1980, dated 1987)
